# ChEMBL document CHEMBL1141382, “Studies leading to potent, dual inhibitors of Bcl-2 and Bcl-xL” (J Med Chem, 2007)
# Columns and labels:
# Bcl-2-like protein 1 [1] = target: T1, Bcl-2-like protein 1 (Homo sapiens, UniProt Q07817); experiment: Displacement of Bad-derived peptide from Bcl-xL by fluorescence polarization assay
# [2] = target: Apoptosis regulator Bcl-2 (Homo sapiens, UniProt P10415); experiment: Displacement of Bax-derived peptide from Bcl2 by fluorescence polarization assay
# Bcl-2-like protein 1 [3] = target: T1, Bcl-2-like protein 1; experiment: Displacement of Bad-derived peptide from Bcl-xL by FPA in presence of 10% human serum
# FL5.12 = experiment: Reversal of cytokine withdrawal protection in IL3 dependent Bcl-xL overexpressing mouse FL5.12 cells in presence of 3% FBS; assay type: functional
# T1 sequence (Q07817 whole entry): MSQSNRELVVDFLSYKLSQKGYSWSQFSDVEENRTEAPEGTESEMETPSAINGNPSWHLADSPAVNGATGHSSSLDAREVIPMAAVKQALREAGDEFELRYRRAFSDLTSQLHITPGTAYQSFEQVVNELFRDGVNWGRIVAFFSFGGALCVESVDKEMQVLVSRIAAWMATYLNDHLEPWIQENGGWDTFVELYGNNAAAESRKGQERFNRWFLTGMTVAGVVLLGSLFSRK
# Apoptosis regulator Bcl-2, sequence (P10415 whole entry): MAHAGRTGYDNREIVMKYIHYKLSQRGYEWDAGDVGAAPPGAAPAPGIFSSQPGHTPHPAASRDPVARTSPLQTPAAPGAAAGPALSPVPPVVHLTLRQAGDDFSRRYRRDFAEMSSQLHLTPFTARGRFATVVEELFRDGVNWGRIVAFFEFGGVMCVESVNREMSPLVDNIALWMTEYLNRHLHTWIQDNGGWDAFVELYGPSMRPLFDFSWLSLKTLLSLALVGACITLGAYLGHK
SMILES,Ki (Bcl-2-like protein 1 [1]) [nM],Ki [2] [nM],IC50 (Bcl-2-like protein 1 [3]) [nM],IC50 (Bcl-2-like protein 1 [1]) [nM],EC50 (FL5.12) [nM]
COC1(CC(C)(C)C)CCN(c2ccc(C(=O)NS(=O)(=O)c3ccc(N[C@H](CCN(C)C)CSc4ccccc4)c([N+](=O)[O-])c3)cc2)CC1,4.6,16,440,,
COC1(Cc2ccccc2-c2ccccc2)CCN(c2ccc(C(=O)NS(=O)(=O)c3ccc(N[C@H](CCN(C)C)CSc4ccccc4)c([N+](=O)[O-])c3)cc2)CC1,< 0.5,< 1,< 60,,
COC1(Cc2ccc(-c3ccccc3)cc2)CCN(c2ccc(C(=O)NS(=O)(=O)c3ccc(N[C@H](CCN(C)C)CSc4ccccc4)c([N+](=O)[O-])c3)cc2)CC1,0.9,< 1,160,,
CN(C)CC[C@H](CSc1ccccc1)Nc1ccc(S(=O)(=O)NC(=O)c2ccc(N3CCC(=Cc4ccccn4)CC3)cc2)cc1[N+](=O)[O-],3.6,46,700,,
CN(C)CC[C@H](CSc1ccccc1)Nc1ccc(S(=O)(=O)NC(=O)c2ccc(N3CCN(Cc4ccccc4-c4cccnc4)CC3)cc2)cc1[N+](=O)[O-],< 0.5,1,81,,
CN(C)CC[C@H](CSc1ccccc1)Nc1ccc(S(=O)(=O)NC(=O)c2ccc(N3CCC(=Cc4ccccc4-c4ccccc4)CC3)cc2)cc1[N+](=O)[O-],< 0.5,< 1,83,,
CN(C)CC[C@H](CSc1ccccc1)Nc1ccc(S(=O)(=O)NC(=O)c2ccc(N3CCN(Cc4ccccc4C(F)(F)F)CC3)cc2)cc1[N+](=O)[O-],< 0.5,< 1,85,,
CSc1ccccc1CN1CCN(c2ccc(C(=O)NS(=O)(=O)c3ccc(N[C@H](CCN(C)C)CSc4ccccc4)c([N+](=O)[O-])c3)cc2)CC1,< 0.5,< 1,< 60,,
CN(C)CC[C@H](CSc1ccccc1)Nc1ccc(S(=O)(=O)NC(=O)c2ccc(N3CCN(Cc4ccccc4NC4CCCCC4)CC3)cc2)cc1[N+](=O)[O-],0.6,3.5,370,,
CN(C)CC[C@H](CSc1ccccc1)Nc1ccc(S(=O)(=O)NC(=O)c2ccc(N3CCC(=Cc4ccc(C(F)(F)F)cc4)CC3)cc2)cc1[N+](=O)[O-],1.4,9.4,1300,,
CN(C)CC[C@H](CSc1ccccc1)Nc1ccc(S(=O)(=O)NC(=O)c2ccc(N3CCN(Cc4ccccc4-c4ccc(S(C)(=O)=O)cc4)CC3)cc2)cc1[N+](=O)[O-],,< 1,< 60,9.1,6700
COc1ccccc1CC1(OC)CCN(c2ccc(C(=O)NS(=O)(=O)c3ccc(N[C@H](CCN(C)C)CSc4ccccc4)c([N+](=O)[O-])c3)cc2)CC1,1.1,1.6,75,,
CN(C)CC[C@H](CSc1ccccc1)Nc1ccc(S(=O)(=O)NC(=O)c2ccc(N3CCC(=Cc4ccccc4C#N)CC3)cc2)cc1[N+](=O)[O-],< 0.5,13,520,,
COC1(CC(C)C)CCN(c2ccc(C(=O)NS(=O)(=O)c3ccc(N[C@H](CCN(C)C)CSc4ccccc4)c([N+](=O)[O-])c3)cc2)CC1,6.1,56,360,,
CN(C)CC[C@H](CSc1ccccc1)Nc1ccc(S(=O)(=O)NC(=O)c2ccc(N3CCC(=Cc4ccccc4F)CC3)cc2)cc1[N+](=O)[O-],< 0.5,2.5,750,,
COC1(Cc2ccccc2)CCN(c2ccc(C(=O)NS(=O)(=O)c3ccc(N[C@H](CCN(C)C)CSc4ccccc4)c([N+](=O)[O-])c3)cc2)CC1,1.8,8.1,150,,
CN(C)CC[C@H](CSc1ccccc1)Nc1ccc(S(=O)(=O)NC(=O)c2ccc(N3CCC4(CC3)CC(c3ccccc3)=NO4)cc2)cc1[N+](=O)[O-],4.4,35.2,,,
CN(C)CC[C@H](CSc1ccccc1)Nc1ccc(S(=O)(=O)NC(=O)c2ccc(N3CCN(Cc4ccccc4C4CCCCC4)CC3)cc2)cc1[N+](=O)[O-],< 0.5,< 1,61,,
CN(C)CC[C@H](CSc1ccccc1)Nc1ccc(S(=O)(=O)NC(=O)c2ccc(N3CCC(=Cc4ccc(Cl)cc4)CC3)cc2)cc1[N+](=O)[O-],< 0.5,2.1,510,,
CCCCCC1(OC)CCN(c2ccc(C(=O)NS(=O)(=O)c3ccc(N[C@H](CCN(C)C)CSc4ccccc4)c([N+](=O)[O-])c3)cc2)CC1,1.3,20,312,,
COC1(CC2CCCCC2)CCN(c2ccc(C(=O)NS(=O)(=O)c3ccc(N[C@H](CCN(C)C)CSc4ccccc4)c([N+](=O)[O-])c3)cc2)CC1,0.8,6.6,300,,
CN(C)CC[C@H](CSc1ccccc1)Nc1ccc(S(=O)(=O)NC(=O)c2ccc(N3CCC(=Cc4ccccc4Cl)CC3)cc2)cc1[N+](=O)[O-],< 0.5,0.7,700,,
CN(C)CC[C@H](CSc1ccccc1)Nc1ccc(S(=O)(=O)NC(=O)c2ccc(N3CCN(Cc4ccccc4-c4ccccc4)CC3)cc2)cc1[N+](=O)[O-],< 0.5,< 1,< 60,,1200

SMILES,Ki (Bcl-2-like protein 1 [1]) [nM],Ki [2] [nM],IC50 (Bcl-2-like protein 1 [3]) [nM],IC50 (Bcl-2-like protein 1 [1]) [nM],EC50 (FL5.12) [nM]
CN(C)CC[C@H](CSc1ccccc1)Nc1ccc(S(=O)(=O)NC(=O)c2ccc(N3CCC(=Cc4cccnc4)CC3)cc2)cc1[N+](=O)[O-],1.3,68,2800,,
CN(C)CC[C@H](CSc1ccccc1)Nc1ccc(S(=O)(=O)NC(=O)c2ccc(N3CCN(Cc4ccccc4N4CCOCC4)CC3)cc2)cc1[N+](=O)[O-],< 0.5,< 1,< 60,,
COC1(Cc2cccc(Cl)c2)CCN(c2ccc(C(=O)NS(=O)(=O)c3ccc(N[C@H](CCN(C)C)CSc4ccccc4)c([N+](=O)[O-])c3)cc2)CC1,< 0.5,1.8,170,,
COC1(Cc2ccccc2C)CCN(c2ccc(C(=O)NS(=O)(=O)c3ccc(N[C@H](CCN(C)C)CSc4ccccc4)c([N+](=O)[O-])c3)cc2)CC1,< 0.5,1.4,71,,
COC1(Cc2ccc(Cl)cc2)CCN(c2ccc(C(=O)NS(=O)(=O)c3ccc(N[C@H](CCN(C)C)CSc4ccccc4)c([N+](=O)[O-])c3)cc2)CC1,0.9,2.7,200,,
COC1(Cc2ccccc2F)CCN(c2ccc(C(=O)NS(=O)(=O)c3ccc(N[C@H](CCN(C)C)CSc4ccccc4)c([N+](=O)[O-])c3)cc2)CC1,0.9,3.1,79,,
CN(C)CC[C@H](CSc1ccccc1)Nc1ccc(S(=O)(=O)NC(=O)c2ccc(N3CCC(=Cc4ccccc4C(F)(F)F)CC3)cc2)cc1[N+](=O)[O-],< 0.5,2,300,,
CN(C)CC[C@H](CSc1ccccc1)Nc1ccc(S(=O)(=O)NC(=O)c2ccc(N3CCN(Cc4ccccc4-c4ccc(C(F)(F)F)cc4)CC3)cc2)cc1[N+](=O)[O-],< 0.5,< 1,< 60,,120
COc1ccccc1C=C1CCN(c2ccc(C(=O)NS(=O)(=O)c3ccc(N[C@H](CCN(C)C)CSc4ccccc4)c([N+](=O)[O-])c3)cc2)CC1,0.6,2,760,,
CC1OC2(CCN(c3ccc(C(=O)NS(=O)(=O)c4ccc(N[C@H](CCN(C)C)CSc5ccccc5)c([N+](=O)[O-])c4)cc3)CC2)N(Cc2ccccc2)C1=O (some centres not stated),3.7,9.6,,,
CN(C)CC[C@H](CSc1ccccc1)Nc1ccc(S(=O)(=O)NC(=O)c2ccc(N3CCN(Cc4ccccc4)CC3)cc2)cc1[N+](=O)[O-],2.6,39.8,350,,
CN(C)CC[C@H](CSc1ccccc1)Nc1ccc(S(=O)(=O)NC(=O)c2ccc(N3CCC(=Cc4ccc(F)cc4)CC3)cc2)cc1[N+](=O)[O-],< 0.5,3.4,520,,
CN(C)CC[C@H](CSc1ccccc1)Nc1ccc(S(=O)(=O)NC(=O)c2ccc(N3CCN(C(=O)c4ccccc4)CC3)cc2)cc1[N+](=O)[O-],< 1,61.9,,,
COc1ccccc1CN1CCN(c2ccc(C(=O)NS(=O)(=O)c3ccc(N[C@H](CCN(C)C)CSc4ccccc4)c([N+](=O)[O-])c3)cc2)CC1,< 0.5,3.2,80,,
CN(C)CC[C@H](CSc1ccccc1)Nc1ccc(S(=O)(=O)NC(=O)c2ccc(N3CCC4(CC3)CC(Cc3ccccc3)=NO4)cc2)cc1[N+](=O)[O-],1.7,6.5,,,
CC1(C)CCN(c2ccc(C(=O)NS(=O)(=O)c3ccc(NC(C)(C)CSc4ccccc4)c([N+](=O)[O-])c3)cc2)CC1,0.8,,360,,
Cc1ccccc1CN1CCN(c2ccc(C(=O)NS(=O)(=O)c3ccc(N[C@H](CCN(C)C)CSc4ccccc4)c([N+](=O)[O-])c3)cc2)CC1,3,4.5,140,,
COC1(Cc2ccccc2Cl)CCN(c2ccc(C(=O)NS(=O)(=O)c3ccc(N[C@H](CCN(C)C)CSc4ccccc4)c([N+](=O)[O-])c3)cc2)CC1,< 0.5,< 1,62,,
COC1(Cc2ccccc2Br)CCN(c2ccc(C(=O)NS(=O)(=O)c3ccc(N[C@H](CCN(C)C)CSc4ccccc4)c([N+](=O)[O-])c3)cc2)CC1,< 0.5,1.5,< 60,,
CN(C)CC[C@H](CSc1ccccc1)Nc1ccc(S(=O)(=O)NC(=O)c2ccc(N3CCN(C(=O)Nc4ccccc4)CC3)cc2)cc1[N+](=O)[O-],2.5,300,,,
CN(C)CC[C@H](CSc1ccccc1)Nc1ccc(S(=O)(=O)NC(=O)c2ccc(N3CCN(Cc4ccccc4S(C)(=O)=O)CC3)cc2)cc1[N+](=O)[O-],0.9,4.6,170,,
Cc1ccc(S(=O)(=O)N2CCN(c3ccc(C(=O)NS(=O)(=O)c4ccc(N[C@H](CCN(C)C)CSc5ccccc5)c([N+](=O)[O-])c4)cc3)CC2)cc1,4,6.1,,,
CN(C)CC[C@H](CSc1ccccc1)Nc1ccc(S(=O)(=O)NC(=O)c2ccc(N3CCN(Cc4ccccc4-c4ccc(Cl)cc4)CC3)cc2)cc1[N+](=O)[O-] [ABT 737],,,,,220
